Laboratory results from US20120237552A1, “Peptoid Agonists of Nerve Growth Factor and Their Use as Medicaments” (priority 2009, published 2012).

Tested on: TNFα, IL2, iNOS gene expression
Experiment: Cytokine and iNOS gene expression in spleen of EAE mice (quantitative RT-PCR)
Assay type: in vivo
Settings: end of the experiment, treated vs placebo
Method: Brains and spinal cords from mice obtained at the time of death were homogenized in RNA lysis buffer. Total RNA was extracted using the RNeasy Mini Kit (Qiagen, Chatwworth, Calif.) isolation system, including DNase treatment using the RNase-Free DNase Set (Quiagen). Total RNA (35 μg) was reverse transcribed using the Reverse Transcription System (High Capacity cDNA Archive Kit; Applied Biosystems, Foster City, Calif.). The real time reaction was conducted at 25° C. for 10 minutes, followed by 37° C. for 2 hours, and finally stored at 4° C. Primers and target-specific fluorescence-labeled TaqMan probes were purchased from Applied Biosystems (TaqMan Gene Expression assays). We used the TaqMan Universal Master Mix (Applied biosystems). Amplification of complementary DNA was performed on a DNA Engine Opticon 2 Real-Time System (MJ Research, Watertown, Mass.) using 0.9 μM for each primer and 0.25 μM for the probe and 20 ng complementary DNA. The reaction conditions were an initial 2 minutes at 50° C., followed by 10 minutes at 95° C. and 40 cycles of 15 seconds at 95° C. and 1 minute at 60° C. Each sample was run in triplicate, and in each plate the target and the endogenous control were amplified in different wells. The expression of the gene tested was quantified relative to the level of the housekeeping gene 18rRNA (Palacios et al., 2008).
To assess which was the effect of this compound in the peripheral immune response, the proliferative response against the immunizing antigen (MOG) in splenocytes of naïve animals and the cytokine profile in spleen cells from placebo and treated animals were evaluated. […] Gene expression of interleukin2 (IL2), Interferon γ (IFNγ), tumor necrosis factor α (TNFα), inducible nitric oxide synthase (iNOS) and interleukin 10 (IL10) was investigated by quantitative reverse transcriptase PCR at the end of the experiment in splenocytes from placebo and treated animals.

CC(C)CCN(CC(=O)N(CCCN1CCCC1=O)CC(N)=O)C(=O)CNCCc1ccccc1F [N35-4-8C, [N-(2-(2′-Fluorophenyl)ethyl)glycyl]-[N-(3-methylbutyl)glycyl]-N-[3-(2′-oxopyrrolidinyl)propyl]glycinamide]
significant decrease: gene expression of IL2 in spleen | gene expression of TNFα in spleen | gene expression of iNOS in spleen
